The first test has as its system human NPY-Y7 receptors. In words: Competitive displacement of [125I]PYY on membranes of COSm6 cells transiently expressing human NPY-Y7 receptors. As to conditions: COS-6 or HEX (293) cells transiently expressing recombinant Y7 receptor protein; FIG. 2. The format is binding. As to the method: The results were obtained through competitive displacement of [^125I]PYY on membranes of COSm6 cells transiently expressing human NPY-Y7 receptors. Membranes were incubated with [^125I]PYY (50 pM) and increasing concentrations of peptide competitors. Data are representative of a single experiment with each point measured in triplicate.
These experiments were conducted using COS-6 or HEX (293) cells transiently expressing recombinant Y7 receptor protein.
pcDNA3.1-hy7 cDNA was transiently transfected into the COSm6 cell line using FUGENE and […] of DNA/106 cells. The COSm6 cells were grown in Dulbecco's modified Eagles medium supplemented with 2 mM glutamine and 10% fetal calf serum, in 5% CO2 at 37° C. Membranes were harvested with COSm6 cells 72hr post-transfection. Adherent cells were washed twice in ice-cold phosphate buffered saline and lysed using a glass homogeniser in ice-cold hypotonic buffer (50 mM Tris-HCl, pH 7.4, 0.1% bacitracin). Membranes were pelleted by high speed centrifugation (30,000×g, 15 min 4° C.), homogeniser again in ice-cold hypotonic buffer and collected again by high speed centrifugation (30,000×g, 15 min, 4° C.). […] Samples were incubated at room temperature for 2hr. Incubations were terminated by centrifugation (4 min) and pellets collected. Radioactivity was measured for 1 min in a g counter.
For orientation: In a radioligand displacement assay an active substance lowers the binding of a labelled ligand.
Turning to “PYY: peptide YY, 36 amino acids, member of the pancreatic polypeptide family”, the “affinity of the protein encoded by the hy7 cDNA (radio-ligand binding)” value is “highest affinity”.

The same test, now with this note: inhibition of [125I]PYY (50 pM) binding, COSm6 membranes, single experiment, triplicate points.
As to “(Leu31, Pro34)NPY: NPY-related peptide competitor, NPY analogue with Leu31 and Pro34”, the “rank of potency for the Y7 receptor” value was “PYY>NPY>[2-36]PYY>[3-36]NPY>[13-36]NPY>>(Leu31, Pro34)NPY>PP”. For Neuropeptide Y [NPY], the “rank of potency for the Y7 receptor” value was “PYY>NPY>[2-36]PYY>[3-36]NPY>[13-36]NPY>>(Leu31, Pro34)NPY>PP”. Take “PYY: peptide YY, 36 amino acids, member of the pancreatic polypeptide family”: the “rank of potency for the Y7 receptor” value is “PYY>NPY>[2-36]PYY>[3-36]NPY>[13-36]NPY>>(Leu31, Pro34)NPY>PP”. Regarding “[2-36]PYY: NPY-related peptide competitor, PYY fragment 2-36”, the “rank of potency for the Y7 receptor” value is “PYY>NPY>[2-36]PYY>[3-36]NPY>[13-36]NPY>>(Leu31, Pro34)NPY>PP”.

As to “[3-36]NPY: NPY-related peptide competitor, NPY fragment 3-36”, the “rank of potency for the Y7 receptor” value is “PYY>NPY>[2-36]PYY>[3-36]NPY>[13-36]NPY>>(Leu31, Pro34)NPY>PP”. Same read-out and setting: to “[13-36]NPY: NPY-related peptide competitor, NPY fragment 13-36” belongs “PYY>NPY>[2-36]PYY>[3-36]NPY>[13-36]NPY>>(Leu31, Pro34)NPY>PP”.

Source of the values: US6803232B1, “NPY-Y7 receptor gene” (The Garvan Institute of Medical Research, priority 1998, dated 2004).
